Results published in patent US8895509B2, “MIR-200 family induces mesenchymal-to-epithelial transition (MET) in ovarian cancer cells” (Georgia Tech Research Corporation, priority 2010, dated 2014).
“Also recorded” adds a separate entry of the source.

System: HEY cells
Assay: morphology of HEY cells after microRNA transfection
Assay type: cell-based, human
Settings: transfected with 30 nM miRNA, vs negative control
Description: The OVCAR3 cell line was originally established from the ascites of a patient with poorly differentiated papillary epithelial OC [Hamilton et al., Cancer Res 1985, 45:3668-76]. The OVCAR3 cell line was obtained from the American Type Culture Collection (Manassas, Va.). The HEY cell line was derived from a patient with moderately differentiated papillary cystadenocarcinoma of the ovary [Buick et al., Cancer Res 1985, 45:3668-76]. The HEY cell line was kindly provided by Gordon Mills, Department of Molecular Therapeutics, University of Texas, MD Anderson Cancer Center.
6×10^4 cells per well were seeded in 24-well plates. After 24 h, cells were transfected with 30 nM of miR-429 and miR-320 miRNA oligonucleotides (Ambion, Austin, Tex.) using Lipofectamine 2000 reagent (Invitrogen, Carlsbad, Calif.). The Ambion Pre-miRNA Precursor Negative Control was used as a control. Three days after transfection, cells were split and transfected again. This process was repeated every 3 days until 21 days when cells were assayed for response.

With “miR-429: miR-200 family member; mature miRNA UAAUACUGUCUGGUAAAACCGU (SEQ ID NO: 6); miRNA oligonucleotide (Ambion) transfected at 30 nM (listed as RNA, chemistry not given here; listed as Homo sapiens) [miR-200 family member; miRNA oligonucleotide (Ambion) transfected at 30 nM]” the “morphological change of HEY cells” value was “morphological change from an elongated, spindle-shaped, mesenchymal phenotype to a more rounded, epithelial-like phenotype; also recorded: change from an elongated mesenchymal-like morphology to a rounded epithelial-like morphology”.
